Experimental data published in patent publication US6573258B2, “Photodynamic porphyrin antimicrobial agents” (Frontier Scientific, Inc., priority 2000, dated 2003).

Experiments:
S. aureus cells [1] = assay: Binding of porphyrins to bacteria cells; format: cell-based, Staphylococcus aureus; conditions: S. aureus, 5 min incubation, 1 μM porphyrin, three PBS washings
Experimental: (§1) Escherichia coli strain O4 (wild type), and methycillin-resistant Staphylococcus aureus, strain MRSA 110, were grown aerobically at 37° C. in brain heart infusion broth (BHI, Difco, Detroit, Mich.). The cells in the stationary phase of growth were harvested by centrifugation (2,000 g for 15 min) of the broth cultures, washed twice with 10 mM PBS at pH=7.4, containing 2.7 mM KCl and 0.14 M NaCl, and suspended in PBS at a density of 10^8-10^9 cells/ml (absorbance of about 0.7 at 650 nm). Aliquots of 5 ml of the cell suspension were incubated with 1 μM porphyrins for 5 min in the dark at room temperature. After incubation the suspensions were centrifuged and the cell pellets were collected immediately or washed with PBS and centrifuged again for one or three times.
(§2) The amount of cell-bound porphyrins was determined in the pellets after resuspension and overnight-incubation in 2% aqueous SDS. The porphyrin concentration in the cell lysate was determined by measuring the intensity of red fluorescence (600-750 nm) emitted after excitation at 420 nm and interpolating the data on a calibration plot obtained with known porphyrin concentrations. The protein content of the cell samples was determined by the method of Lowry (Lowry et al., J. Biol. Chem., 193:265-275 (1951)) and was used to express the amount of porphyrin bound to the cells as nanomoles of porphyrin/mg of protein.

[2] = Photosensitized photooxidation of NATA; conditions: 10 μM NATA; for ΦSDS × 10^3, quantum yield for photo-oxidation of NATA: aqueous 2% SDS; for ΦPBS × 10^3, quantum yield for photo-oxidation of NATA: phosphate buffered solution
Experimental: The photosensitizing activity of the various porphyrins was tested by measuring their efficiency in promoting the photooxidation of N-acetyl-L-tryptophanamide (NATA, Aldrich Chem. Co.) as a model biological substrate. Toward this aim, 10 μM NATA in PBS or in water containing 2% SDS was irradiated in the presence of 5 μM porphyrin. The irradiations were performed with 515±10 nm-light isolated by means of an interference filter (Balzers, Liechtenstein), while the solution (2 ml) was magnetically stirred in a quartz cuvette of 1-cm optical path and kept at 25° C. The photosensitized modification of NATA was followed by measuring the decrease in the intensity of its fluorescence emission spectrum (300-450 nm) upon excitation with 290 nm-light at various irradiation times. Plots of in F°/F (where F° and F represent the fluorescence intensity at time 0 and t, respectively) vs. the irradiation time allowed the first-order rate constants of the photo-process to be derived.
The intensity of the incident light was measured by using Aberchrome 999P in toluene as an actinometer. Heller, EPA Newslett., 29:49-60 (1987). This parameter was used to calculate the quantum yields of NATA photooxidation sensitized by the different porphyrins.

[3] = Triplet state properties by laser flash photolysis; format: physicochemical; conditions: phosphate-buffered solution; for φT, triplet quantum yield: ε920 estimated by total depletion method
Experimental: Laser flash photolysis experiments were carried out by use of the setup previously described in Gomer, et al., with excitation wavelengths of 355 and 420 nm. Gorner, et al., Photoinduced electron transfer between styrylanthracenes and electron donors and acceptors in acetonitrile, J. Chem. Soc. Faraday Trans., vol. 88, pp. 29-34 (1992).
The transient spectra of the porphyrins in buffer solutions were recorded upon laser flash photolysis excitation at 355 and 420 nm. […] The decay (growth) of the signal (bleaching) occurred according to first-order kinetics and led to a complete recovery of the ground state with a lifetime of 91 μs. […] This also allowed the triplet quantum yield (φT) to be determined (see Table 3), after calibration of the experimental setup by use of an optically-matched solution of benzophenone in acetonitrile.

E. coli cells [4] = assay: Growth inhibition after 5 min incubation with porphyrin and white-light irradiation; format: cell-based, Escherichia coli
Experimental: (§3) The abilities of various examples of the porphyrins of the instant invention to kill Gram-negative and Gram-positive bacteria were tested against that of T4MPyP. Each of the compounds was incubated with E. coli and S. aureus cells for 5 minutes, following which the samples were irradiated with white light for varying lengths of time.
as §1
(§4) The toxic effects of T4MPyP and its analogues on E. coli and S. aureus cells were evaluated by measuring the extent of growth inhibition (bacteriostatic effect) and reduction of survival (cytocidal/bacteriocidal effect) following treatment with porphyrin in the dark or upon light exposure.
(§5) In all cases, 5 ml of the cell suspension (10^8-10^9 cells/ml) were incubated for 5 min in the dark at room temperature with the selected photosensitizer at concentrations ranging between 0.5 and 10 μM. After dark-incubation, some of the cell samples were irradiated with white light (150 mW/cm^2). During irradiation, (up to 30 min) the cells were kept at 37° C. and magnetically stirred. The treated and untreated control cells were diluted with BHI and maintained at 37° C. while the absorbance of the suspension at 650 nm was monitored at predetermined time periods for determining growth curves. The percent of growth inhibition in the treated cells was calculated by the following equation: […]
(§6) where AX, and AC are the absorbances measured after 3 h incubation, respectively, for the treated and control cell suspensions, respectively, while A0 represents the initial absorbance and the AC is that of the control cell suspension after 5 hours incubation. Cell survival was determined by plating serially diluted aliquots of treated and untreated cells on brain heart agar and counting the number of colonies after 18-24 h incubation at 37° C.

E. coli cells [5] = assay: Dark toxicity of porphyrins on bacteria cells; format: cell-based, Escherichia coli; conditions: 10 μM, 5 min incubation in the dark
Experimental: as §4, §5, §6

E. coli cells [6] = assay: Binding of porphyrins to bacteria cells; format: cell-based, Escherichia coli; conditions: 5 min incubation, 1 μM porphyrin, three PBS washings
Experimental: as §1, §2

E. coli cells [7] = assay: Decrease of cell survival (colony counting) after white-light irradiation; format: cell-based, Escherichia coli; conditions: 5 min dark incubation, 15 min white light (150 mW/cm^2)
Experimental: as §1, §4, §5, §6

[8] = Fluorescence decay times (phase-shift method); format: physicochemical; conditions: ca. 5 μM, air-equilibrated buffer pH 7.4, λexc = 420 nm, λem > 600 nm
Experimental: Fluorescence decay times of the porphyrin samples were measured by means of a Spex Fluorolog-τ2 spectrofluorimeter based on the phase-shift method. The frequency response curves (phase-shift and demodulation ratio vs. frequency) were globally analyzed.

S. aureus cells [9] = assay: Growth inhibition after 5 min incubation with porphyrin and white-light irradiation; format: cell-based, Staphylococcus aureus
Experimental: as §3, §1, §4
[…] After dark-incubation, some of the cell samples were irradiated with white light (150 mW/cm^2). During irradiation, (up to 30 min) the cells were kept at 37° C. and magnetically stirred. The treated and untreated control cells were diluted with BHI and maintained at 37° C. while the absorbance of the suspension at 650 nm was monitored at predetermined time periods for determining growth curves. The percent of growth inhibition in the treated cells was calculated by the following equation:
as §6

S. aureus cells [10] = assay: Dark toxicity of porphyrins on bacteria cells; format: cell-based, Staphylococcus aureus; conditions: 10 μM, 5 min incubation in the dark
Experimental: as §4, §5, §6

[11] = Fluorescence quantum yields; format: physicochemical; conditions: for ΦF (PBS), fluorescence quantum yield: in PBS; for ΦF (SDS), fluorescence quantum yield: in aqueous 2% SDS
Experimental: Ground-state absorption spectra of the porphyrins (ca. 5 μM in phosphate buffered saline (PBS, pH=7.4) were recorded with a Lambda 5 Perkin-Elmer spectrophotometer. Fluorescence spectra, corrected for the instrumental response, were recorded with a Perkin-Elmer (model LS) or a Spex (Fluorolog F112) spectrofluorimeter. Fluorescence quantum yields ((IF) of the porphyrin derivatives in PBS and in water containing 2% sodium dodecylsulfate (a detergent, hereinafter “SDS”) were determined by measuring the area of the emission spectrum (600-800 nm range, excitation at 560 nm) and using tetra-n-propylporphycene in toluene as a reference (ΦF=0.38). Braslavsky et al, J. Photochem. Photobiol. B: Biol., 40:191-198 (1997). In all cases, the absorbance of the sample and the reference solution were kept below 0.1 at the excitation wavelength to minimize inner filter effects.

[12] = Photostability (photobleaching) under white light; format: physicochemical; conditions: 1 μM in PBS
Experimental: The photostability of the porphyrins was determined in PBS upon illumination of […] solutions with white light (400-800 nm) isolated from the emission of a quartz-halogen lamp equipped with UV and infrared filters (Teclas, Lugano, Switzerland). The lamp was operated at a fluence rate of 150 mW/cm^2. During irradiation, the solution was magnetically stirred and kept at 37° C. The concentration of the porphyrin samples was monitored spectrophotometrically at different irradiation times and the photostability was expressed as the percent residual absorbance referred to the absorbance measured prior to irradiation.

[13] = 10 μM, incubated 5 min, white light 5 min
[14] = 10 μM, incubated 5 min, white light 15 min
[15] = Table 5: 10 μM, 5 min incubation, 5 min white light (150 mW/cm^2)
[16] = 1 μM, incubated 5 min, white light 5 min
[17] = Table 5: 1 μM, 5 min incubation, 5 min white light (150 mW/cm^2)

SMILES	ΦSDS × 10^3, quantum yield for photo-oxidation of NATA [2]	ΦPBS × 10^3, quantum yield for photo-oxidation of NATA [2]	λmin of transient spectrum [3]	φ×ε920 [3]	τ^air, triplet lifetime [3]	φT, triplet quantum yield [3]	DECREASE OF SURVIVAL (log) (E. coli cells [7]; 1 μM porphyrin)	DECREASE OF SURVIVAL (log) (E. coli cells [7]; 10 μM porphyrin)	A2, relative weight of slow component [8]	τ1, fluorescence decay time of fast component [8]	τ2, fluorescence decay time of slow component [8]	ΦF (PBS), fluorescence quantum yield [11]	ΦF (SDS), fluorescence quantum yield [11]	also measured
C[n+]1ccc(-c2c3nc(c(-c4cc[n+](C)cc4)c4ccc([nH]4)c(-c4cc[n+](C)cc4)c4nc(c(-c5cc[n+](C)cc5)c5ccc2[nH]5)C=C4)C=C3)cc1.Cc1ccc(S(=O)(=O)[O-])cc1.Cc1ccc(S(=O)(=O)[O-])cc1.Cc1ccc(S(=O)(=O)[O-])cc1.Cc1ccc(S(=O)(=O)[O-])cc1 [Porphyrin T4MPyP, Meso-tetra(N-methyl-4-pyridyl)porphine tetratosylate, reference compound]	0.64 ± 0.08	0.77 ± 0.21	425 nm	6814 M⁻¹ cm⁻¹	14 μs	0.73	+0.28 log	−1.82 ± 0.82 log	71%	1.0 ns	4.7 ns	0.017	0.031	initially bound porphyrin retained after three washings (S. aureus cells [1]): 16%; λmax of transient spectrum [3]: 480 nm; τ^N2, triplet lifetime ([3]; N2): 91 μs; Growth inhibition (%) E. coli (E. coli cells [4]; [13]): 28.7%; Growth inhibition (%) E. coli (E. coli cells [4]; [14]): 82.8%; Growth inhibition (%) E. coli (E. coli cells [4]; [15]): 29%; concentration photoinducing significant bacteriostatic and bactericidal action (E. coli cells [4]; both cell strains (S. aureus and E. coli)): 10 µM; inhibition of bacterial cell growth in the dark (E. coli cells [5]): barely detectable inhibition; initially bound porphyrin retained after three washings (E. coli cells [6]): 11%; A1, relative weight of fast component [8]: 29%; Growth inhibition (%) S. aureus (S. aureus cells [9]; [13]): 96.4%; Growth inhibition (%) S. aureus (S. aureus cells [9]; [14]): 100%; Growth inhibition (%) S. aureus (S. aureus cells [9]; [15]): 96%; inhibition of bacterial cell growth in the dark (S. aureus cells [10]): barely detectable inhibition
CCCCCCCCCCCCCCCCCCCCCC[n+]1ccc(-c2c3nc(c(-c4cc[n+](C)cc4)c4ccc([nH]4)c(-c4cc[n+](C)cc4)c4nc(c(-c5cc[n+](C)cc5)c5ccc2[nH]5)C=C4)C=C3)cc1.Cl.Cl.[Cl-].[Cl-].[Cl-].[Cl-] [Porphyrin C22, 5-(4-N-docosanyl)-10,15,20-tris(4-N-methylpyridyl)-21H,23H-porphine tetrachloride dihydrochloride salt]	0.83 ± 0.08	below our detection limits	420 nm	<122 M⁻¹ cm⁻¹	0.1 μs	<0.08	+0.22 ± 0.07 log	−1.94 ± 0.28 log	73%	0.5 ns	5.9 ns	0.001	0.029	t^1/2 of initial fast photodegradation phase [12]: 6.5 min; Growth inhibition (%) E. coli (E. coli cells [4]; [16]): 2.7%; Growth inhibition (%) E. coli (E. coli cells [4]; 1 μM, incubated 5 min, white light 30 min): 18.5%; Growth inhibition (%) E. coli (E. coli cells [4]; [17]): 3%; Growth inhibition (%) S. aureus (S. aureus cells [9]; [16]): 69.7%; Growth inhibition (%) S. aureus (S. aureus cells [9]; 1 μM, incubated 5 min, white light 10 min): 90.2%; Growth inhibition (%) S. aureus (S. aureus cells [9]; Table 5: 0.5 μM, 5 min incubation, 5 min white light (150 mW/cm^2)): 27%; Growth inhibition (%) S. aureus (S. aureus cells [9]; [17]): 70%
